Among the data in patent US12594276B2, “Inhibitors of human immunodeficiency virus replication” (ViiV Healthcare UK (No.5) Limited, priority 2024, dated 2026) are EC50 and CC50 values, retold here.

The subject of series [1] is recombinant NL4-3 virus (nef section replaced with Renilla luciferase gene) in MT-2 cells. Briefly: HIV cell culture assay (antiviral activity, luciferase readout). In kind it is cell-based. The settings on record: Renilla, NL43, MT-2 cells infected for 4-5 days with recombinant NL4-3 Renilla luciferase virus. In a few lines: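 The reporter virus was produced by transfecting 293T cells with the NL4-3 nef/Renilla luciferase proviral clone. MT-2 cells were infected for 4–5 days with serial compound dilutions present. Luciferase was read with a live-cell substrate, and EC50 came from the exponential median-effect equation.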

Series [2] can be described thus: Compound cytotoxicity, XTT-based colorimetric assay. It counts as cell-based. The settings on record: human; uninfected MT2 cells, day 4, XTT; read-out: CC50. In a few lines:
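CC50 derived from XTT colorimetric signal measured on day 4 in MT2 cells that were not infected. All other steps followed the antiviral assay protocol.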

With `CCc1cc(C2CCC(F)(F)CC2)nc2nc([C@H](Cc3cc(F)cc(F)c3)NC(=O)Cn3nc(C(F)F)c4c3C(F)(F)[C@@H]3C[C@H]43)n(-c3ccc(Cl)c4c(NS(C)(=O)=O)nn(CCCOC)c34)c(=O)c12` (atropisomer, axis not shown; (P)) [Example 638, N-[(1S)-1-[(3P)-3-[4-chloro-3-methanesulfonamido-1-(3-methoxypropyl)-1H-indazol-7-yl]-7-(4,4-difluorocyclohexyl)-5-ethyl-4-oxo-3H,4H-pyrido[2,3-d]pyrimidin-2-yl]-2-(3,5-difluorophenyl)ethyl]-2-[(2S,4R)-9-(difluoromethyl)-5,5-difluoro-7,8-diazatricyclo[4.3.0.0^2,^4]nona-1(6),8-dien-7-yl]acetamide], the EC50 in series [1] came out at 18 pM. In addition, the CC50 at 4 days in series [2] is over 50000 pM.
For `CCc1cc(C2CCC(F)(F)CC2)nc2nc([C@H](Cc3cc(F)cc(F)c3)NC(=O)Cn3nc(C4CC4)c4c3C(F)(F)[C@@H]3C[C@H]43)n(-c3ccc(Cl)c4c(NS(C)(=O)=O)nn(CCCOC)c34)c(=O)c12` (atropisomer, axis not shown; (P)) [Example 639, N-[(1S)-1-[(3P)-3-[4-chloro-3-methanesulfonamido-1-(3-methoxypropyl)-1H-indazol-7-yl]-7-(4,4-difluorocyclohexyl)-5-ethyl-4-oxo-3H,4H-pyrido[2,3-d]pyrimidin-2-yl]-2-(3,5-difluorophenyl)ethyl]-2-[(2S,4R)-9-cyclopropyl-5,5-difluoro-7,8-diazatricyclo[4.3.0.0^2,^4]nona-1(6),8-dien-7-yl]acetamide], in that order: 25 pM and over 50000 pM.
For `CS(=O)(=O)Nc1nn(CCN(CCC(F)(F)F)CCC(F)(F)F)c2c(-n3c([C@H](Cc4cc(F)cc(F)c4)NC(=O)Cn4nc(C(F)F)c5c4C(F)(F)[C@@H]4C[C@H]54)nc4nc(C5CCC(F)(F)CC5)ccc4c3=O)ccc(Cl)c12` (atropisomer, axis not shown; (P)) [Example 671, N-[(1S)-1-[(3P)-3-(1-{2-[bis(3,3,3-trifluoropropyl)amino]ethyl}-4-chloro-3-methanesulfonamido-1H-indazol-7-yl)-7-(4,4-difluorocyclohexyl)-4-oxo-3H,4H-pyrido[2,3-d]pyrimidin-2-yl]-2-(3,5-difluorophenyl)ethyl]-2-[(2S,4R)-9-(difluoromethyl)-5,5-difluoro-7,8-diazatricyclo[4.3.0.0^2,^4]nona-1(6),8-dien-7-yl]acetamide], the EC50 in series [1] was 27 pM. Also, the cytotoxic concentration (CC50) at 4 days in series [2] is over 20000 pM.
With `CS(=O)(=O)Nc1nn(CCN2CCC(F)(F)CC2)c2c(-n3c([C@H](Cc4cc(F)cc(F)c4)NC(=O)Cn4nc(C(F)F)c5c4C(F)(F)[C@@H]4C[C@H]54)nc4nc(C5CCC(F)(F)CC5)cc(CO)c4c3=O)ccc(Cl)c12` (atropisomer, axis not shown; (P)) [Example 675, N-[(1S)-1-[(3P)-3-{4-chloro-1-[2-(4,4-difluoropiperidin-1-yl)ethyl]-3-methanesulfonamido-1H-indazol-7-yl}-7-(4,4-difluorocyclohexyl)-5-(hydroxymethyl)-4-oxo-3H,4H-pyrido[2,3-d]pyrimidin-2-yl]-2-(3,5-difluorophenyl)ethyl]-2-[(2S,4R)-9-(difluoromethyl)-5,5-difluoro-7,8-diazatricyclo[4.3.0.0^2,4]nona-1(6),8-dien-7-yl]acetamide], in series [1], the EC50 was found to be 31 pM. Also, in series [2], the CC50 at 4 days is over 20000 pM.
